US10118902B2 (Sanford Burnham Prebys Medical Discovery Institute, priority 2014, dated 2018)
pEC50: −log10 of the molar value.

Target: neurotensin receptor 1 (NTR1) (Homo sapiens (Human), UniProt P30989)
Test: NTR1 dose response, high-content imaging beta-arrestin-GFP assay in NTR1-U2OS cells
Assay type: cell-based
Conditions: read-out: EC50

neurotensin receptor 1 (NTR1), sequence (P30989 whole entry, species assumed): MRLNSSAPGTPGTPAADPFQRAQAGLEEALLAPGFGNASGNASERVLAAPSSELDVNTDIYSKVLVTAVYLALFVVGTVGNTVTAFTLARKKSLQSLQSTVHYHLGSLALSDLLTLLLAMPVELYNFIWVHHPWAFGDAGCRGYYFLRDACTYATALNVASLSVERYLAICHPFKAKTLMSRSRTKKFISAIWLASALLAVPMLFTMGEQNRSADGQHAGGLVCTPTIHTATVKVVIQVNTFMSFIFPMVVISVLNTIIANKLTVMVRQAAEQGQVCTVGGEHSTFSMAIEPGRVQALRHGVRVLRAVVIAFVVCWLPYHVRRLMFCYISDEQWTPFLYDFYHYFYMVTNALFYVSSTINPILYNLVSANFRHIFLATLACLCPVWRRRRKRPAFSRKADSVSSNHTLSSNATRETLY

SMILES | pEC50
COc1ccccc1C1CCN(c2nc(C3(F)CC3)nc3ccc(N(C)CC(=O)O)cc23)CC1 [Example 180, 2-((2-(1-fluorocyclopropyl)-4-(4-(2-methoxyphenyl)piperidin-1-yl)quinazolin-6-yl)(methyl)amino)acetic acid] | 5.00 to 5.70
COc1ccccc1C1CCN(c2nc(-c3ccccc3)nc3ccc(N(C)C)cc23)CC1 [Example 143] | < 5.00
COc1ccccc1C1CCN(c2nc(C3(F)CC3)nc3cc(Cl)c(N(C)CCO)cc23)CC1 [Example 172] | 5.70 to 6.30
